Data as given in patent publication US5401490A, “Markers of tissue hypoxia” (priority 1989, dated 1995).
Read-outs that look alike come from different tables or passages of the source.

Assay: Tissue distribution of radioactivity after intravenous injection
Type: in vivo, BALB/C mice
Conditions: mouse, iv, i.v.; for tissue uptake at 0.5 h: 0.50 h
Text: Tables 1 and 2 show the percent of injected IAZG and IAZA respectively per gram of wet tissue for selected tissues excised from BALB/C mice bearing EMT-6 tumors. This tumor model is known to have a high hypoxic fraction (0.33) (16). […] Hepatobiliary excretion may play a role in blood clearance as evidenced by elevated liver radioactivity and the appearance of activity in the intestine. Some oxidative or reductive metabolites of the 2-nitroimidazoles may also become bound to liver tissue, as was postulated in an in vivo study with ^14 C-MISO (6). This supposition is supported by the persistence of liver radioactivity at longer time periods. […] At 8 and 24 hours thyroid levels of IAZG are 7.2 and 30.9% of the total body activity and for IAZA they are 7.9 and 33.8% of total body activity. EXAMPLE 11 TISSUE DISTRIBUTION AND EXCRETION Tumor propagation of EMT-6 tumors in BALB/C mice was accomplished by subcutaneous injection of a cell suspension (10^5 cells in 0.1 mL) as described previously (10). Tumors reached about 10 mm in diameter (≈0.5 g) at 12 to 14 days, at which time each animal was given a bolus intravenous injection of ^125 I-labelled test drug via the tail vein (40 to 60 kBq in 0.1 mL). At set time periods the animals were asphyxiated with CO2 and exsanguinated via cardiac puncture. Tissues were dissected, weighed wet into vials and counted for ^125 I-activity. Whole-body activity was determined by summation of total activity in tissues and in residual carcass, and blood activity was determined from the blood aliquot, assuming blood to be 6.5% of the total body weight. EXAMPLE 12 Male BALB/c mice (20-25 g) were inoculated subcutaneously in the left flank with a suspension of murine EMT-6 cells (10^5 cells in 0.1 mL) (14). After 12 to 14 days, when the tumors reached the desired size (8-10 mm diameter), each mouse received a single intravenous (iv) injection of ^125 I-IAZA (59 kBq in 0.1 mL). […] Heart, lung, liver, spleen, muscle, bone, thyroid, kidney, stomach, small intestine, tail, tumor and skin were removed upon necropsy, weighed and analyzed for ^125 I using a Beckman Model 8000 gamma scintillation counter. The remaining carcass mass was also weighed and radioassayed.

[1] = blood, read-out: Percent of Injected Dose per Gram, Blood
[2] = bone, read-out: Percent of Injected Dose per Gram, Bone
[3] = carcass, read-out: Percent of Injected Dose per Gram, Carcass
[4] = heart, read-out: Percent of Injected Dose per Gram, Heart
[5] = intestine, read-out: Percent of Injected Dose per Gram, Intestine
[6] = kidney, read-out: Percent of Injected Dose per Gram, Kidney
[7] = liver, read-out: Percent of Injected Dose per Gram, Liver
[8] = lung, read-out: Percent of Injected Dose per Gram, Lung
[9] = muscle, read-out: Percent of Injected Dose per Gram, Muscle
[10] = spleen, read-out: Percent of Injected Dose per Gram, Spleen
[11] = stomach, read-out: Percent of Injected Dose per Gram, Stomach
[12] = tumor, read-out: Percent of Injected Dose per Gram, Tumor

O=[N+]([O-])c1nccn1[C@@H]1O[C@H](CI)[C@@H](O)[C@@H]1O [IAZA, 1-(5-iodo-5-deoxy-β-D-arabino-furanosyl)-2-nitroimidazole]
tissue uptake at 0.25 h [1]: 2.63 ± 0.28 %ID/g
tissue uptake at 0.5 h [1]: 2.17 ± 0.85 %ID/g
tissue uptake at 1 h [1]: 1.84 ± 0.72 %ID/g
tissue uptake at 2 h [1]: 0.91 ± 1.56 %ID/g
tissue uptake at 4 h [1]: 0.45 ± 1.24 %ID/g
tissue uptake at 8 h [1]: 0.14 ± 0.07 %ID/g
tissue uptake at 24 h [1]: 0.037 ± 0.047 %ID/g
tissue uptake at 0.25 h [2]: 1.31 ± 0.18 %ID/g
tissue uptake at 0.5 h [2]: 1.37 ± 0.57 %ID/g
tissue uptake at 1 h [2]: 1.15 ± 0.52 %ID/g
tissue uptake at 2 h [2]: 0.58 ± 0.26 %ID/g
tissue uptake at 4 h [2]: 0.27 ± 0.09 %ID/g
tissue uptake at 8 h [2]: 0.08 ± 0.03 %ID/g
tissue uptake at 24 h [2]: 0.022 ± 0.03 %ID/g
tissue uptake at 0.25 h [3]: 2.68 ± 0.44 %ID/g
tissue uptake at 0.5 h [3]: 2.55 ± 0.37 %ID/g
tissue uptake at 1 h [3]: 2.23 ± 0.91 %ID/g
tissue uptake at 2 h [3]: 1.46 ± 0.29 %ID/g
tissue uptake at 4 h [3]: 0.89 ± 0.52 %ID/g
tissue uptake at 8 h [3]: 0.28 ± 0.12 %ID/g
tissue uptake at 24 h [3]: 0.038 ± 0.016 %ID/g
tissue uptake at 0.25 h [4]: 4.69 ± 0.91 %ID/g
tissue uptake at 0.5 h [4]: 3.56 ± 0.66 %ID/g
tissue uptake at 1 h [4]: 2.78 ± 1.3 %ID/g
tissue uptake at 2 h [4]: 1.03 ± 0.43 %ID/g
tissue uptake at 4 h [4]: 0.32 ± 0.24 %ID/g
tissue uptake at 8 h [4]: 0.22 ± 0.05 %ID/g
tissue uptake at 24 h [4]: 0.042 ± 0.017 %ID/g
tissue uptake at 0.25 h [5]: 5.42 ± 1.03 %ID/g
tissue uptake at 0.5 h [5]: 4.44 ± 0.62 %ID/g
tissue uptake at 1 h [5]: 4.63 ± 1.92 %ID/g
tissue uptake at 2 h [5]: 1.73 ± 0.55 %ID/g
tissue uptake at 4 h [5]: 0.81 ± 0.46 %ID/g
tissue uptake at 8 h [5]: 0.77 ± 0.36 %ID/g
tissue uptake at 24 h [5]: 0.041 ± 0.016 %ID/g
tissue uptake at 0.25 h [6]: 6.56 ± 0.63 %ID/g
tissue uptake at 0.5 h [6]: 5.67 ± 0.95 %ID/g
tissue uptake at 1 h [6]: 4.38 ± 1.25 %ID/g
tissue uptake at 2 h [6]: 1.8 ± 0.61 %ID/g
tissue uptake at 4 h [6]: 0.66 ± 0.39 %ID/g
tissue uptake at 8 h [6]: 0.34 ± 0.06 %ID/g
tissue uptake at 24 h [6]: 0.52 ± 0.004 %ID/g
tissue uptake at 0.25 h [7]: 8.65 ± 1.02 %ID/g
tissue uptake at 0.5 h [7]: 7.14 ± 1.13 %ID/g
tissue uptake at 1 h [7]: 5.63 ± 2.27 %ID/g
tissue uptake at 2 h [7]: 2.18 ± 0.8 %ID/g
tissue uptake at 4 h [7]: 0.95 ± 0.58 %ID/g
tissue uptake at 8 h [7]: 0.47 ± 0.1 %ID/g
tissue uptake at 24 h [7]: 0.098 ± 0.008 %ID/g
tissue uptake at 0.25 h [8]: 4.61 ± 0.82 %ID/g
tissue uptake at 0.5 h [8]: 3.77 ± 0.67 %ID/g
tissue uptake at 1 h [8]: 2.99 ± 1.41 %ID/g
tissue uptake at 2 h [8]: 1.15 ± 0.38 %ID/g
tissue uptake at 4 h [8]: 0.45 ± 0.3 %ID/g
tissue uptake at 8 h [8]: 0.33 ± 0.07 %ID/g
tissue uptake at 24 h [8]: 0.037 ± 0.008 %ID/g
tissue uptake at 0.25 h [9]: 3.09 ± 0.67 %ID/g
tissue uptake at 0.5 h [9]: 2.77 ± 0.54 %ID/g
tissue uptake at 1 h [9]: 2.19 ± 1.03 %ID/g
tissue uptake at 2 h [9]: 0.69 ± 0.29 %ID/g
tissue uptake at 4 h [9]: 0.24 ± 0.12 %ID/g
tissue uptake at 8 h [9]: 0.36 ± 0.31 %ID/g
tissue uptake at 24 h [9]: 0.02 ± 0.004 %ID/g
tissue uptake at 0.25 h [10]: 3.57 ± 0.67 %ID/g
tissue uptake at 0.5 h [10]: 3 ± 0.62 %ID/g
tissue uptake at 1 h [10]: 2.48 ± 1.25 %ID/g
tissue uptake at 2 h [10]: 0.93 ± 0.37 %ID/g
tissue uptake at 4 h [10]: 0.35 ± 0.2 %ID/g
tissue uptake at 8 h [10]: 0.18 ± 0.04 %ID/g
tissue uptake at 24 h [10]: 0.036 ± 0.034 %ID/g
tissue uptake at 0.25 h [11]: 4.36 ± 0.7 %ID/g
tissue uptake at 0.5 h [11]: 4.75 ± 1.05 %ID/g
tissue uptake at 1 h [11]: 3.95 ± 0.93 %ID/g
tissue uptake at 2 h [11]: 3.3 ± 0.93 %ID/g
tissue uptake at 4 h [11]: 1.81 ± 1.6 %ID/g
tissue uptake at 8 h [11]: 0.87 ± 0.54 %ID/g
tissue uptake at 24 h [11]: 0.067 ± 0.014 %ID/g
tissue uptake at 0.25 h [12]: 2.55 ± 0.86 %ID/g
tissue uptake at 0.5 h [12]: 3.48 ± 0.46 %ID/g
tissue uptake at 1 h [12]: 2.7 ± 0.39 %ID/g
tissue uptake at 2 h [12]: 2.55 ± 1.65 %ID/g
tissue uptake at 4 h [12]: 2.08 ± 0.27 %ID/g
tissue uptake at 8 h [12]: 1.22 ± 0.24 %ID/g
tissue uptake at 24 h [12]: 0.206 ± 0.23 %ID/g
